These results are taken from patent US20160102074A1, “SUBSTITUTED AMIDE COMPOUNDS” (PFIZER INC., priority 2014, published 2016).

Data set [1] is described as follows: Human hepatocyte in vitro liver metabolism assay (HHep). In kind it is in vitro ADME. The following applies: cryopreserved human hepatocytes, 0.5 million viable cells per mL, 37° C. From the text:
In particular, the human intestinal S9 fraction in vitro stability assay (HInt) and human hepatocyte in vitro liver metabolism assay (HHep) provide important information regarding the clearance and metabolic activation of these compounds. The human intestinal S9 fraction in vitro stability assay provides a surrogate measure of compound metabolism as it travels across the gut wall; compounds with low CLint values more likely to enter the portal vein and be exposed to the liver. Likewise, the human hepatocyte in vitro liver metabolism assay provides a surrogate measure of compound metabolism when exposed to liver; compounds with high CLint values are more likely to be metabolically activated. For compounds such as prodrugs that release an active species on metabolic activation, high CLint values in human hepatocytes are desirable. Active compounds released in this way inhibit PCSK9 and show improved atherosclerotic properties by increased exposure of the active metabolite in the liver.
Human Hepatocyte In Vitro Liver Metabolism Assay (HHep)
In order to determine the rate of metabolism leading to conversion of prodrug into active drug form, experiments utilizing human hepatocytes were performed. Hepatocytes are an ideal in vitro system to monitor hepatic metabolism since these intact cells contain all the hepatic enzymes found in vivo, including phase I enzymes (such as CYPs, aldehyde oxidases, esterases and MAOs) and phase II enzymes (such as UDP-glucuronyltransferases and sulfotransferases). The assay utilizes isolated hepatocytes from human donors incubated with the compound of interest in conditions mimicking physiological conditions where the metabolic stability of the compound is investigated. The experimental protocol is as follows. Vials of cryopreserved human hepatocytes (stored in liquid nitrogen until used for testing) were thawed in a water bath (37 to 40° C.) until nearly thawed, transferred to a conical tube, resuspended by inversion and subsequently centrifuged at 50-90 g at room temperature for 5 min. The supernatant was then discarded and the pellet loosened by gently tapping the end of the conical tube. William's E media was then added to achieve the desired final cell density (0.5 million viable cells per mL), and the hepatocytes were then resuspended in this fresh media. The viable cell count was then determined using the trypan blue exclusion method where a minimum viability of 70% was obtained. At this point, new molecular entities (NME's) were prepared for testing. In brief, the NME was diluted with DMSO such that final incubation concentration of NME was […] and final DMSO content was 0.1%. Assays were conducted in a 384-well format at 37° C. in an incubator held at 95% air to 5% CO2 at 95% relative humidity. The per-well incubation total incubation volume was 20 μL including hepatocytes and NME. The assay was performed using 7 hepatocyte plates where the plates were designated as sampling times 0, 15, 30, 60, 120 and 240 min and include hepatocytes and NME, and a no NME control plate with hepatocytes that was taken at 240 min. Two additional no hepatocyte containing control plates were prepared and subsequently sampled at 0 and 240 min, respectively, and were identical to the hepatocyte containing plates with respect to NME and media composition. The incubations were stopped using acetonitrile and prepared for analytical testing using liquid chromatography mass-spectrometry (LC/MS) detection. Each NME was optimized for LC/MS analytical conditions. A disappearance curve was generated from the sample time point analytical peak areas and compared to control plate results (control plates allow artifacts such as non-hepatocyte mediated decline (e.g., media/condition instability for the NME) to be determined). The slope of the disappearance curve was used to determine metabolic stability expressed CLint. […]

Another data set concerns human PCSK9. Put plainly: PCSK9 AlphaLISA assay, PCSK9 lowering in WT7 cells. As to conditions: WT7 cells (Huh7 stably over-expressing human PCSK9), secreted PCSK9 by AlphaLISA, overnight incubation (16-24 h), top concentration 20 μM; read-out: Cell Based PCSK9 IC50. From the text:
PCSK9 Lowering in WT7 Cells
An in-vitro AlphaLISA assay (Perkin Elmer) was developed in order to quantitate the level of PCSK9 secreted into the cell culture media following compound treatment. To detect and measure PCSK9 protein a mouse monoclonal anti-human PCSK9 antibody was coupled to AlphaLISA acceptor beads by an external vendor (Perkin Elmer) and a second rabbit monoclonal anti-human PCSK9 antibody with an epitope distinct from that of the acceptor beads was biotinylated using the EZ link NHS-LC-LC-Biotin kit (Life Technologies #21338). Streptavidin coated-donor beads (Perkin Elmer) are also included in the assay mixture which then binds the biotinylated anti-PCSK9 antibody and in the presence of PCSK9 this donor complex and acceptor beads are brought into close proximity. Upon excitation of the donor beads at 680 nm singlet oxygen molecules are released that trigger an energy transfer cascade within the acceptor beads resolving as a single peak of light emitted at 615 nm. The ability of compound to modulate PCSK9 protein levels in conditioned media by AlphaLISA was assessed in the human hepatocellular carcinoma cell line Huh7, stably over-expressing human PCSK9. This cell line, termed WT7, was established by transfecting Huh7 cells with an in-house modified pcDNA 3.1 (+) Zeo expression vector (Life Technologies) containing the full-length human PCSK9 sequence (NCBI reference identifier, NM_174936.3, where coding sequence start annotated at position 363) and a c-terminal V5 and 6×-His tag. Following plasmid transfection the stable WT7 clone was identified and maintained under Zeocin selection. Compound screening was performed in 384-well plates where WT7 cells were plated at a density of 7500 cells per well in 20 μL of tissue culture media containing compound in an eleven point, 0.5 log dilution format at a high treatment concentration of 20 μM in a final volume of 0.5% DMSO. In additional to these test compound conditions each screening plate also included wells that contained 20 μM puromycin as a positive assay control defined as high percent effect, HPE, as well as wells containing media in 0.5% DMSO as a negative treatment control defined as zero percent effect, ZPE. After overnight compound incubation (16-24 h) the tissue culture media was collected and an aliquot from each sample was transferred to individual wells of a 384-well white Optiplate (Perkin Elmer). The coupled antibodies and donor beads were added to the assay plates in a buffer composed of 30 mM Tris pH 7.4, 0.02% Tween-20 and 0.02% Casein. Anti-PCSK9 acceptor beads (final concentration of 10 μg/mL) and anti-PCSK9 biotinylated antibody (final concentration of 3 nM) were added and incubated for 30 minutes at room temperature followed by the addition of the streptavidin donor beads (final concentration 40 μg/mL) for an additional 60 minutes. Additionally a standard curve was generated where AlphaLISA reagents were incubated in wells spiked with recombinant human PCSK9 diluted in tissue culture media from 5000 ng/mL to 0.6 ng/mL. Following incubation with AlphaLISA reagents plates were read on an EnVision (Perkin Elmer) plate reader at an excitation wavelength of […] and emission/detection wavelength of […]. To determine compound IC50 the data for HPEand ZPEcontrol wells were first analyzed and the mean, standard deviation and Z prime calculated for each plate. The test compound data were converted into percent effect, using the ZPE and HPE controls as 0% and 100% activity, respectively. The equation used for converting each well reading into percent effect was:
IC50 was then calculated and reported as the midpoint in the percent effect curve in molar units and the values are reported under the Cell Based PCSK9 IC50 (μM) column header within Table 2 Biological Data. […]
On the technique in general: In Alpha technology, singlet oxygen from a donor bead excites a nearby acceptor bead.

Molecules are shown by their SMILES. pIC50: −log10 of the molar value.

Regarding `CCOC(=O)O[C@@H](C)n1nnnc1-c1c(-c2ccc(C(=O)N(c3ncccc3C)[C@@H]3CCCNC3)cc2)cnn1C` [Example 5a, ethyl (S)-1-{5-[1-methyl-4-(4-{(3-methylpyridin-2-yl)[(3R)-piperidin-3-yl]carbamoyl}phenyl)-1H-pyrazol-5-yl]-1H-tetrazol-1-yl}ethyl carbonate], the “HHep CLint” value in data set [1] is reported as 57.2 μL/min/mil. Also, the negative-log IC50 (pIC50) in the data set with human PCSK9 is < 4.70. For `CCOC(=O)O[C@@H](C)n1nnnc1-c1c(-c2ccc(C(=O)N(c3ncccc3Cl)[C@@H]3CCCNC3)nc2)cnn1C` [Example 10, ethyl (S)-1-{5-[4-(6-{(3-chloropyridin-2-yl)[(3R)-piperidin-3-yl]carbamoyl}pyridin-3-yl)-1-methyl-1H-pyrazol-5-yl]-1H-tetrazol-1-yl}ethyl carbonate], in that order: 11.8 μL/min/mil and < 4.70.

As to `CCOC(=O)O[C@@H](C)n1nnnc1-c1c(-c2ccc(C(=O)N(c3ncccc3Cl)[C@@H]3CCCNC3)cc2)cnn1C` [Example 6, ethyl (S)-1-{5-[1-methyl-4-(4-{(3-chloropyridin-2-yl)[(3R)-piperidin-3-yl]carbamoyl}phenyl)-1H-pyrazol-5-yl]-1H-tetrazol-1-yl}ethyl carbonate], the “HHep CLint” value in data set [1] was found to be 71.2 μL/min/mil. Further, in the data set on human PCSK9, the pIC50 was < 4.70. For `CCOC(=O)O[C@@H](C)n1nnnc1-c1c(-c2ccc(C(=O)N(c3ncccc3C)[C@@H]3CCCNC3)cc2F)cnn1C` [Example 8, ethyl (S)-1-{5-[4-(4-{(3-methylpyridin-2-yl)[(3R)-piperidin-3-yl]carbamoyl}-2-fluorophenyl)-1-methyl-1H-pyrazol-5-yl]-1H-tetrazol-1-yl}ethyl carbonate], in that order: 51.3 μL/min/mil and < 4.70. With `CCOC(=O)O[C@H](C)n1nnnc1-c1c(-c2ccc(C(=O)N(c3ncccc3Cl)[C@@H]3CCCNC3)cc2F)cnn1C` [Example 11, ethyl (R)-1-{5-[4-(4-{(3-chloropyridin-2-yl)[(3R)-piperidin-3-yl]carbamoyl}-2-fluorophenyl)-1-methyl-1H-pyrazol-5-yl]-1H-tetrazol-1-yl}ethyl carbonate], the “HHep CLint” value in data set [1] is given as >170 μL/min/mil. Besides, the pIC50 in the data set on human PCSK9 was 4.79.

Consider `CCOC(=O)O[C@@H](C)n1nnnc1-c1c(-c2ccc(C(=O)N(c3ncccc3Cl)[C@@H]3CCCNC3)cc2F)cnn1C` [Example 7, ethyl (S)-1-{5-[4-(4-{(3-chloropyridin-2-yl)[(3R)-piperidin-3-yl]carbamoyl}-2-fluorophenyl)-1-methyl-1H-pyrazol-5-yl]-1H-tetrazol-1-yl}ethyl carbonate], for which, in data set [1], the “HHep CLint” value is 97.6 μL/min/mil. For the same molecule, in the data set on human PCSK9, the pIC50 was < 4.70. For `CCOC(=O)O[C@H](C)n1nnnc1-c1c(-c2ccc(C(=O)N(c3ncccc3C)[C@@H]3CCCNC3)cc2)cnn1C` [Example 5b, ethyl (R)-1-{5-[1-methyl-4-(4-{(3-methylpyridin-2-yl)[(3R)-piperidin-3-yl]carbamoyl}phenyl)-1H-pyrazol-5-yl]-1H-tetrazol-1-yl}ethyl carbonate], in that order: 85.0 μL/min/mil and < 4.70.

In the case of `Cn1ncc(-c2ccc(C(=O)N(c3ncccc3Cl)[C@@H]3CCCNC3)cc2F)c1-c1nn[nH]n1` [Example 3, N-(3-chloropyridin-2-yl)-3-fluoro-4-[1-methyl-5-(2H-tetrazol-5-yl)-1H-pyrazol-4-yl]-N-[(3R)-piperidin-3-yl]benzamide], the negative logarithm of the IC50 (pIC50) in the data set with human PCSK9 is < 4.70. Turning to `CCOC(=O)O[C@@H](C)n1nnnc1-c1c(-c2ccc(C(=O)N(c3ncccc3C)[C@@H]3CCCNC3)nc2)cnn1C` [Example 9, ethyl (S)-1-{5-[1-methyl-4-(6-{(3-methylpyridin-2-yl)[(3R)-piperidin-3-yl]carbamoyl}pyridin-3-yl)-1H-pyrazol-5-yl]-1H-tetrazol-1-yl}ethyl carbonate], in data set [1], the “HHep CLint” value amounted to 7.0 μL/min/mil. In addition, in the data set on human PCSK9, the pIC50 is < 4.70.

The pIC50 is −log10 of the IC50, conventionally taken in molar units.
